Assay results from patent US4083951A, “Pharmaceutical composition” (Beecham Group Limited, priority 1976, dated 1978).

How the values were obtained:
[1] = test system: phenylquinone induced writhing; test: phenylquinone induced writhing in the mouse (analgesic effects); format: in vivo; settings: dose in terms of acetyl salicylate content, mixture at 2:1 ratio of equivalents, read-out: ED50 (analgesic effect)
Description: Sodium acetyl salicylate and mixtures of sodium acetyl salicylate and ferrous sulphate (2:1 ratio of equivalents) were tested against phenylquinone induced writhing in the mouse. Dose responses were plotted in terms of acetyl salicylate content and the following ED50 values obtained: […]

gastric erosions = test: gastric irritancy in starved rats, 1 hour contact time; format: in vivo, rat; settings: rats fasted 18 hr
Description: When tested in starved rats (18 hr. fasted) with a 1 hour contact time the following results were obtained:
*Mixture made from dry compounds
**Constituents dosed as solutions

Row | Compound | ED50 [1] | % incidence gastric erosions (gastric erosions; dose 160 mg/kg) | % incidence gastric erosions (gastric erosions; dose 338 mg/kg) | % incidence gastric erosions (gastric erosions; dose 100 mg/kg)
1 | CC(=O)Oc1ccccc1C(=O)O [Sodium acetyl salicylate] | 56 mg/kg | 88% | 75% | –
2 | CC(=O)Oc1ccccc1C(=O)O [Calcium acetyl salicylate] | – | – | – | 25%
